Assay results published in paper PMC3095642, “New Synthetic Thrombin Inhibitors: Molecular Design and Experimental Verification” (PLoS ONE, 2011).
Read-outs that look alike come from different tables or passages of the source. Marks after values point to notes of the source that are not given here.

Legend:
Human thrombin = molecular target: T1, Human thrombin (Homo sapiens, UniProt P00734); test: Thrombin induced hydrolysis of specific substrates in buffer system; assay type: biochemical
T1 construct: Human thrombin (8.3 mg/ml) was obtained from Hematologic Technologies Inc; purchased Hematologic Technologies Inc. (Essex Junction, VT, USA)
Description: The kinetics of thrombin inhibition was determined from the hydrolysis reaction of a specific substrate by thrombin in the presence of the tested substances. The chromogenic substrate (Tosyl-Gly-Pro-Arg-p-nitroanilide) or fast fluorogenic substrate (BOC-Ala-Pro-Arg-AMC) was used.
Plate wells were filled with 20 mM HEPES (pH 8.0) containing 140 mM NaCl and 0.1% polyethylene glycol (molecular weight 6000 Da). Thereafter, substrate was sequentially added to each well (final concentration, 100 µM), followed by the substance being tested (to a final concentration that was varied) and thrombin (final concentration, 0.2 nM). The hydrolysis rate was monitored spectrophotometrically at 405 nm (absorption maximum of the reaction product – p-nitroaniline), or fluorometrically (λex = 380 nm; λem = 440 nm for fluorescent reaction product 7-amino-4-methylcoumarine).
The initial rate was determined as the slope of the linear portion of the kinetic curve over the first 10 to 20 min of measurement. The inhibitory effect was expressed as the percentage reduction of the initial hydrolysis rate. The reaction rate in the absence of inhibitor was taken as 100%. Each result is the mean of two parallel determinations.
The inhibitor concentration was determined decreasing hydrolysis rate to 50% (IC50). Values of the inhibition constants were calculated on the assumption about competitive mechanism of inhibition using equation (1) [drawing 1] (1) where: KI - the constant of inhibition,
• S - the concentration of a substrate (100 µM), • KM - the Michaelis constant of a specific substrate for thrombin (9.44 µM, average from ref. [23], [24] and our measurements for chromogenic and 13 µM for the fluorogenic substrate, respectively).

[1] = system: thrombin generation in normal donor plasma (PPP); test: Thrombin generation test in plasma (endogenous thrombin potential, ETP); assay type: biochemical, human
Description: The kinetics of thrombin generation in plasma was monitored using a modification of the standard method using a slow fluorogenic substrate BOC-Ile-Gly-Arg-AMC [8]. Normal donor plasma (PPP) was placed in the wells (90 µl/well) of a 96-well flat-bottom microtiter plate, after which 10 µl of the substance solution to be tested was added in different concentrations, along with 10 µl of the slow fluorogenic substrate (initial concentration 5 mM). In the control wells (without inhibitor), 10 µl of the solvent used was added (20 mM HEPES, pH 7.5 and 140 mM NaCl; or pure ethanol, or dimethylsulfoxide (DMSO) for different substances). The samples were incubated at 37°C for 3–5 min before being activated with thromboplastin, which was a 1∶250 dilution of a standard prothrombin time reagent (Renam, Moscow, Russia) in the same buffer supplemented with 90 mM CaCl2. The final concentration of tissue factor during activation was about 4 pM. Thromboplastin (25 µl) was added to all wells simultaneously using a multichannel micropipette. The moment of thromboplastin addition was taken as time zero. The kinetics of accumulation of the fluorescent reaction product 7-amino-4-methylcoumarine (AMC) was recorded for 65 min with a fluorometric Fluoroscan II reader (LabSystem, Finland) (λex. = 380 nm; λem. = 440 nm). The results were averaged over two parallel samples. The error of parallel measurements was within 2–5%. At every moment, the rate of product accumulation is proportional to the instant thrombin concentration present in plasma. Therefore, the curve for the temporal evolution of thrombin in the system may be obtained using differentiation of the curve for AMC accumulation. For each sample, arbitrary fluorescence units were converted to absolute AMC concentrations using the calibration signal obtained by adding a known AMC concentration into each particular plasma sample in the presence of the fluorogenic substrate and the tested substance. The corrections were done taking into account the substrate consumption and the nonlinearity of the AMC calibration curve. The area under the thrombin time curve over a period of 60 min (endogenous thrombin potential, ETP) was determined.

C57Bl/6 mice [2] = test: Acute toxicity in mice; assay type: in vivo, mouse; conditions: females, mortality after 2 or less hours
Description: Preliminary safety examination for the best synthesized inhibitors was carried out by measuring their acute toxicity in C57Bl/6 mice (females, 26–28 g, intraperitoneal administration). The total number of animals used in each experiment was 20–35. The dose of inhibitor that caused mortality in half of the animals after 2 or less hours (LD50) was determined. […] For administration of different doses of an inhibitor, different volumes of the initial stock inhibitor solution were supplemented with corresponding volumes of vehicle (20% cremophore EL in normal saline) to obtain a constant administered volume of 1.8 ml in each case. To obtain the highest doses of inhibitors, the animals were injected with 2.3 ml of stock inhibitor solutions instead.

[3] = system: hemodilution-induced hypercoagulation in rats; test: Model of hemodilution-induced hypercoagulation in rats; assay type: in vivo, rat; conditions: 23.0±4.5% blood loss, infusion of saline supplemented with 2 µM inhibitor, 10, 30 or 60 min after infusion
Description: In particular, 200 µl of PPP samples were placed in the wells of a 96-well plate. Then, 2 µl of a solution of fluorogenic substrate BOC-Ile-Gly-Arg-AMC in DMSO (initial concentration 41 mM) was added, and coagulation was triggered by 3 µl of activator, which was a 1∶20 dilution of a standard prothrombin time reagent (Renam, Moscow, Russia) in the buffer (20 mM HEPES, 140 mM NaCl, pH 7.5) supplemented with 1.4 M CaCl2. Measurement of fluorescence (120 min) and processing of the results obtained were carried out by the methods described earlier.
The anticoagulation activity of one of the new thrombin inhibitors (4i) was studied in vivo in a newly developed model of hemodilution-induced hypercoagulation in rats. Experiments were carried out on male outbred white rats weighing 250–450 g and housed in a vivarium. A polyethylene cannula was implanted into the right femoral artery of the rats, which were anesthetized with thiopental (40 mg/kg of body weight, i.p.), to a depth of 4–5 cm. […] Coagulation was analyzed in samples of blood collected before hemodilution for all animals. […] The volume of blood loss was calculated on the assumption that the total blood volume of the rat is equal to 6.5% of the body weight.

[4] = system: thrombin generation in normal donor plasma (PPP); conditions: ref [36], [37], read-out: IC50 for ETP reduction; cited from earlier work
C57Bl/6 mice [5] = conditions: ref [38]; cited from earlier work
[6] = chromogenic substrate (SCHR), calculated assuming competitive type of inhibition, read-out: Inhibition of thrombin activity (in buffer system) Ki
[7] = chromogenic substrate (SCHR), read-out: Inhibition of thrombin activity (in buffer system) IC50
[8] = Table S2, read-out: IC50 for ETP reduction in plasma
[9] = chromogenic substrate Tosyl-Gly-Pro-Arg-p-nitroanilide, calculated assuming competitive inhibition, KM 9.44 µM, read-out: KI for thrombin inhibition in buffer system
[10] = ETP reduction by 50% in plasma in vitro, read-out: IC50 for reduction of thrombin generation in plasma
[11] = fast fluorogenic substrate (SFLUO), 100 µM, thrombin 0.2 nM, read-out: Inhibition of specific thrombin substrate hydrolysis in buffer system IC50
[12] = fast fluorogenic substrate (SFLUO), calculated from IC50 assuming a competitive mechanism of inhibition, read-out: Inhibition of specific thrombin substrate hydrolysis in buffer system KI

For Cc1cc(OCCC[n+]2ccc(N)cc2)cc(OS(=O)(=O)c2ccccc2Cl)c1 [4d], the Ki (Human thrombin; [6]) was 293 nM, the IC50 (Human thrombin; [7]) was 3400 nM and the IC50 [1, 8] was 40000 nM.
Cc1cc(OCC[n+]2ccc(N)cc2)cc(OS(=O)(=O)c2ccccc2F)c1.[I-] [4e] gave an IC50 (Human thrombin; [7]) of 3.5 nM, a Ki (Human thrombin; [9]) of 0.3 nM and an IC50 [1, 10] of 100 nM. For the same molecule, the “LD50 (mouse), intraperitoneal administration” value (shortened to “LD50 (mouse)”) (C57Bl/6 mice [2]) was 523.1 ± 92.3 mg/kg.
Cc1cc(OCC[n+]2ccc(N)cc2)cc(OS(=O)(=O)c2ccccc2Cl)c1.[I-] [4f] showed an IC50 (Human thrombin; [7]) of 2.44 nM, a Ki (Human thrombin; [9]) of 0.21 nM and an IC50 [1, 10] of 260 nM. The “LD50 (mouse)” value (C57Bl/6 mice [2]) was 679.0 ± 152.7 mg/kg.
Work on Cc1cc(OCC[n+]2ccc(N)cc2)cc(OS(=O)(=O)c2ccccc2S(C)(=O)=O)c1.[I-] [4g] yielded an IC50 (Human thrombin; [7]) of 8.7 nM, a Ki (Human thrombin; [9]) of 0.75 nM and an IC50 [1, 10] of 160 nM. The “LD50 (mouse)” value (C57Bl/6 mice [2]) was 166.7 ± 20.0 mg/kg.
In the case of Cc1cc(OCC[n+]2ccc(N)cc2)cc(OS(=O)(=O)c2ccc(Cl)cc2)c1.[I-] [4h], the IC50 (Human thrombin; [7]) is reported as 9 nM, the Ki (Human thrombin; [9]) is reported as 0.78 nM and the IC50 [1, 10] is reported as 150 nM. For the same molecule, the “LD50 (mouse)” value (C57Bl/6 mice [2]) was 372.7 ± 84.6 mg/kg.
In the case of Cc1cc(OCC[n+]2ccc(N)cc2)cc(OS(=O)(=O)c2ccccc2)c1.[I-] [4i], the IC50 (Human thrombin; [7]) is reported as 9 nM, the Ki (Human thrombin; [9]) is reported as 0.78 nM and the IC50 [1, 10] is reported as 250 nM. The “LD50 (mouse)” value (C57Bl/6 mice [2]) was 418.9 ± 33.0 mg/kg and the “Effect on development of hypercoagulation (change of ETP relative to initial level)” value [3] was “canceled the hypercoagulation effect of hemodilution”.
Cc1cc(OCCCSC(=N)N)cc(OS(=O)(=O)c2ccccc2)c1 [8a] showed a Ki (Human thrombin; [6]) of 8.4 nM, an IC50 (Human thrombin; [7]) of 97 nM and an IC50 [1, 8] of 8000 nM.
For Cc1cc(OCCSC(=N)N)cc(OS(=O)(=O)c2ccccc2S(C)(=O)=O)c1.I [8b], the IC50 (Human thrombin; [7]) was 17 nM, the Ki (Human thrombin; [9]) was 1.5 nM and the IC50 [1, 10] was 800 nM. For the same molecule, the “LD50 (mouse)” value (C57Bl/6 mice [2]) was >458.0 ^5) mg/kg.
For Cc1cc(OCCSC(=N)N)cc(OS(=O)(=O)c2ccccc2Cl)c1.I [8c], the IC50 (Human thrombin; [7]) was 3.8 nM, the Ki (Human thrombin; [9]) was 0.33 nM and the IC50 [1, 10] was 160 nM. The “LD50 (mouse)” value (C57Bl/6 mice [2]) was 793.5 ± 118.5 mg/kg.
Work on Cc1cc(OCCSC(=N)N)cc(OS(=O)(=O)c2ccccc2)c1.I [8d] yielded an IC50 (Human thrombin; [7]) of 11 nM, a Ki (Human thrombin; [9]) of 0.95 nM and an IC50 [1, 10] of 900 nM. For the same molecule, the “LD50 (mouse)” value (C57Bl/6 mice [2]) was greater than 1111.1 mg/kg.
Cc1cc(OCCCSC(=N)N)cc(OS(=O)(=O)c2ccccc2Cl)c1 [8e] showed a Ki (Human thrombin; [6]) of 1 nM, an IC50 (Human thrombin; [7]) of 11.6 nM and an IC50 [1, 8] of 4100 nM.
Cc1cc(OCCCSC(=N)N)cc(OS(=O)(=O)c2ccccc2F)c1.I [8f] showed an IC50 (Human thrombin; [7]) of 23.5 nM, a Ki (Human thrombin; [9]) of 2.03 nM and an IC50 [1, 10] of 1240 nM. The “LD50 (mouse)” value (C57Bl/6 mice [2]) was >653.1 ^5) mg/kg.
With CNC(=N)SCCCOc1cc(C)cc(OS(=O)(=O)c2ccccc2Cl)c1 [8g] the Ki (Human thrombin; [6]) was 474 nM, the IC50 (Human thrombin; [7]) was 5500 nM and the IC50 [1, 8] was 25200 nM.
CNC(=N)SCCOc1cc(C)cc(OS(=O)(=O)c2ccccc2Cl)c1.I [8h] showed an IC50 (Human thrombin; [7]) of 65.8 nM, a Ki (Human thrombin; [9]) of 5.7 nM and an IC50 [1, 10] of 530 nM. The “LD50 (mouse)” value (C57Bl/6 mice [2]) was >287.0 ^5) mg/kg.
For CC1CNc2c(cccc2S(=O)(=O)N[C@@H](CCCNC(=N)N)C(=O)N2CC[C@@H](C)C[C@@H]2C(=O)O)C1 (stereo partly drawn) [Argatroban], the IC50 [1, 10] is listed as 650 nM, the IC50 [4] is listed as 600 to 970 nM and the “LD50 (mouse)” value (C57Bl/6 mice [5]) is listed as 475 mg/kg.
For CC(C)(C)CC(C)(C)c1ccc(OCCSC(=N)N)cc1 [NSC 4482], the IC50 (Human thrombin; [11]) was 3450 nM and the Ki (Human thrombin; [12]) was 400 nM.
Work on CC12CCC3C(CC=C4CC(SC(=N)N)CCC43C)C1CCC2=O (stereo not drawn) [NSC 41339] yielded an IC50 (Human thrombin; [11]) of 240000 nM and a Ki (Human thrombin; [12]) of 27600 nM.
CC(=O)C1CCC2C3CC=C4CC(SC(=N)N)CCC4(C)C3CCC12C (stereo not drawn) [NSC 123477] showed an IC50 (Human thrombin; [11]) of 75000 nM and a Ki (Human thrombin; [12]) of 8600 nM.
For N=C(N)c1ccc(-c2ccc(-c3ccc(C(=N)N)cc3)o2)cc1 [NSC 305831], the IC50 (Human thrombin; chromogenic substrate (SCHR), 100 µM, thrombin 0.2 nM, read-out: Inhibition of specific thrombin substrate hydrolysis in buffer system IC50) was 72000 nM and the Ki (Human thrombin; chromogenic substrate (SCHR), calculated from IC50 assuming a competitive mechanism of inhibition, read-out: Inhibition of specific thrombin substrate hydrolysis in buffer system KI) was 6200 nM.
In the case of Cc1ccc2nc(-c3ccc(CSC(=N)N)cc3)oc(=O)c2c1 [NSC 328131], the IC50 (Human thrombin; [11]) is reported as roughly 35000 nM and the Ki (Human thrombin; [12]) is reported as 4000 nM.
